Measurements from article PMC10447463, “Data-mining unveils structure–property–activity correlation of viral infectivity enhancing self-assembling peptides” (Nature Communications, 2023).

How the values were obtained:
[1] = Turbidity, derived count rate of scattered light; type: physicochemical; conditions: for Count Rate: derived count rate of scattered light (turbidity); for Log10 Count Rate: turbidity, derived count rate of scattered light, data of Figure 2D
[2] = system: HIV-1 infection of TZM-bl cells; experiment: HIV-1 infectivity enhancement assay, β-galactosidase luminescence; type: cell-based; conditions: for Rel-EFC / Log10 Infection Rel EFC: 1.3 µM peptide; for Rel-EFC: infection relative to EF-C (QCKIKQIINMWQ = 1); for Log10 Infection Rel EFC: log10 of infection relative to EF-C; for Log Infectivity: Fig. S7 panel A (plotted against β-sheet content), Log10 infection relative to EF-C, asymmetric std dev errors; for Log10 Infection Rel EF-C: HIV-1 infection of TZM-bl cells; for Log10 of Rel to EFC (Feb2021): Log10 of infection relative to EF-C, all peptides of FigS16; for Abs. Inf.: β-galactosidase luminescence
[3] = Log10 of infection rate relative to EF-C, Figure 3A source data
[4] = infection rate relative to EF-C, log10, data of Figure 2D
[5] = infection rate relative to EF-C, log10, source data of Figure 2C
[6] = absolute HIV-1 infection signal, TZM-bl cells

Substance | Count Rate [1] | Log10 Count Rate [1] | Rel-EFC [2] | Log10 Infection Rel EFC [2] | Log Infectivity ([2]; TZM-bl cells) | Log10 Infection Rel EF-C [2, 3] | Log10 Infection Rel EF-C [2, 4] | Log10 Infection Rel EF-C [2, 5] | Log10 of Rel to EFC (Feb2021) [2] | Abs. Inf. [2, 6] | Abs. Inf. ([2]; absolute infection signal, HIV-1 on TZM-bl cells) | Log10 Inf. rel. to EF-C ([2]; log10 of HIV-1 infection of TZM-bl cells relative to EF-C (EF-C = 0))
KIKIKIKI | 155.1 | 2.191 | 0,03 | -1,49 | -1.487 | -1.49 | -1.487 | -1.487 |  |  |  | 
ILKNLSRSRKIKIQINMWQ | 306.5 | 2.486 | 0,32 | -0,49 | -0.4939 | -0.49 | -0.4939 | -0.4939 | -0.49 | 1797 |  | 
CKIKIQINMW | 4915 | 3.692 | 1,29 | 0,11 | 0.1122 | 0.11 | 0.1122 | 0.1122 | 0.11 | 7253 |  | 
QCKFKQFF | 225.4 | 2.353 | 0,01 | -1,91 | -1.907 | -1.91 | -1.907 | -1.907 |  |  | 170 | -1.907
KIKIQIW | 144.9 | 2.161 | 0,14 | -0,85 | -0.8533 | -0.85 | -0.8533 | -0.8533 | -0.85 | 4280 |  | 
RGDCKIKIQINM | 1623 | 3.2102 | 0,24 | -0,63 | -0.6272 | -0.63 | -0.6272 | -0.6272 | -0.63 |  |  | 
HHHHKAKAKAKAYYYY | 240.9 | 2.382 | 0,01 | -1,88 | -1.883 | -1.88 | -1.883 | -1.883 |  |  |  | 
